Tests used:
Fuc-TV = molecular target: T1, Fuc-TV (Homo sapiens, UniProt Q11128); assay: Fucosyltransferase assay, extracts of COS-1 cells transfected with pCDNA1-Fuc-TV; format: biochemical; details: for utilization as acceptor substrate by Fuc-TV (in words): extracts of COS-1 cells transfected with pCDNA1-Fuc-TV; for Relative Activity (%) with Fuc-TV: relative product formation rate, N-acetyllactosamine = 100, acceptor 20 mM (2-fucosyllactose 5 mM), GDP-[14C]fucose 3 μM, transfected COS-1 cell extract
T1 construct: a 1.94 kb Earl-Xbal fragment containing the entire open reading frame was cloned into a mammalian expression vector; expressed in transfected cells; host or cells: COS-1 cells, transient transfection, 1% Triton X-100 extract
T1 sequence (Q11128 1-374): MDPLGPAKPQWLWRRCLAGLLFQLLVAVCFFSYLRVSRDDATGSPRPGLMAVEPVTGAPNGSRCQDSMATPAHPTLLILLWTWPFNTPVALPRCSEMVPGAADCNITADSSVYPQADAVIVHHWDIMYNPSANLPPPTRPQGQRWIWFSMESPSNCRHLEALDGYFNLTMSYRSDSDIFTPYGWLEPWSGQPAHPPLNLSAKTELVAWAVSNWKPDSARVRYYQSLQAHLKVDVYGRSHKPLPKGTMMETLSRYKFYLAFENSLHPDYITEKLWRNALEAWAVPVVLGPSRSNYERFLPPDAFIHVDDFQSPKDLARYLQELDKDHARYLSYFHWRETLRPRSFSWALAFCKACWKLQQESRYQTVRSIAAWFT
Protocol: Cell extracts containing 1% Triton X-100 were prepared from transfected COS-1 cells. Fucosyltransferase assays were performed in a total volume of 20 μl, and contained 25 mM sodium cacodylate, pH6.2, 5 mM ATP, 10 mM L-fucose, 10 mM MnCl2, 3 μM GDP-^14C-fucose, and 5 μl of cell extract. Acceptor substrates were added to a final concentration of 20 mM. Reactions were incubated at 37° C. for 1 hour and terminated by addition of 20 μl ethanol, followed by addition of 600 μl of distilled water. An aliquot of each reaction (50 μl) was subjected to scintillation counting to determine total radioactivity in the reaction. Another aliquot (200 μl) was applied to a column containing 400 μl of Dowex 1X2-400, formate form. The flow through fraction, and […] of a subsequent water elution, were collected and pooled, and an aliquot was subjected to scintillation counting to quantitate incorporation of radioactive fucose into neutral product.
Table 2 presents the relative product formation rates obtained with low molecular weight acceptor substrates using cell extracts containing recombinant human α(1,3)fucosyltransferases expressed in transfected COS-1 cells, as described in the preceding sections. Fucosyltransferase assays were performed as described in detail in Lowe et al, J. Biol. Chem., (1991), 266:17467-17477; Weston et al, J. Biol. Chem. (1992), 267:4152-4160; and Kukowska-Latallo et al, Genes. Devel., (1990), 4:1288-1303. For each enzyme, the same extract was used, with saturating amounts of each acceptor oligosaccharide (20 mM, except for 2′-fucosylactose which was used at 5 mM), and GDP-^14C]fucose was present at 3 μM. Reaction times and enzyme amounts were adjusted to ensure a linear rate of product formation (less than 15% of the GDP-fucose substrate consumed). Products were separated by column chromatography and quantitated by liquid scintillation counting, and their structures were confirmed by high performance liquid chromatography, as described in Lowe et al, J. Biol. Chem., (1991), 266:17467-17477; Weston et al, J. Biol. Chem. (1992), 267:4152-4160; and Kukowska-Latallo et al, Genes. Devel., (1990), 4:1288-1303.

[1] = system: monoclonal anti-H antibody; assay: Hapten inhibition of anti-H antibody binding to mH1-12 cells (indirect immunofluorescence); set-up: species or system mouse; details: antibody preincubated with hapten, 20 mM
Protocol: Immunofluoroscence was performed on cells plated on 8-well tissue culture chamber slides (Lab-Tek). Cells were plated at a density of 5×10^4/well 24 h prior to analysis. Anti-H and anti-A primary antibodies were diluted in PBS containing bovine serum albumin at 2 mg/ml, to a final concentration of 10 μg/ml. Cell-bound primary antibodies were detected with FITC-conjugated goat anti-mouse IgM, diluted to 40 μg/ml in PBS containing 2 mg/ml bovine serum albumin.
Hapten Inhibition—Plated cells were washed twice with PBS, and were incubated for 30 min at 4° C. with 100 μl of diluted anti-H antibody, or with 100 μl of diluted antibody containing different oligosaccharide haptens, each at a concentration of 20 mM. The chambers were then washed twice, and 100 μl of FITC-conjugated goat anti-mouse IgM was added. After 30 min at 4° C., the chambers were washed three times with PBS, and the cells were fixed at room temperature for 10 min in 3.7% formaldehyde in PBS. The cells were washed twice with PBS, the chambers were removed, and the slide was mounted in PBS containing 25% glycerol. Cells were examined by fluorescence microscopy using a Zeiss Axiophot photomicroscope equipped with fluorescence epiillumination.

Row | Compound | utilization as acceptor substrate by Fuc-TV (in words) (Fuc-TV) | Relative Activity (%) with Fuc-TV (Fuc-TV) | inhibition of anti-H antibody binding to mH1-12 cells by hapten [1]
1 | CC(=O)N[C@H]1C(O)O[C@H](CO)[C@@H](O[C@@H]2O[C@H](CO)[C@H](O)[C@H](O)[C@H]2O)[C@@H]1O (stereo partly shown) [N-acetyllactosamine] | utilized | 100% | does not inhibit
2 | CC(=O)N[C@@H]1[C@@H](O[C@@H]2O[C@H](CO)[C@H](O)[C@H](O)[C@H]2O)[C@H](O)[C@@H](CO)O[C@@H]1O [lacto-N-biose I] | low efficiency | 10% | –
3 | OC[C@H]1O[C@@H](O[C@H]2[C@H](O)[C@@H](O)C(O)O[C@@H]2CO)[C@H](O)[C@@H](O)[C@H]1O (stereo partly shown) [lactose] | substantially lower efficiencies | 11% | does not inhibit
4 | CC(=O)NC1C(O)OC(CO)C(OC2OC(CO)C(O)C(OC3(C(=O)O)CC(O)C(NC(C)=O)C(C(O)C(O)CO)O3)C2O)C1O (stereo not drawn) [α(2,3)sialyllactosamine, NeuAcα(2→3)Galβ(1→4)GlcNAc] | efficiently utilized | 115% | –
5 | Fucα(1,2)Galβ(1,4)Glc [2-fucosyllactose] | substantially lower efficiencies | 42% | blocked
